Reference: patent US8853215B2, “Derivatives of N-acyl-N′-phenylpiperazine useful (inter alia) for the prophylaxis or treatment of diabetes” (Takeda Pharmaceutical Company Limited, priority 2009, dated 2014)

Target: RBP4 (Rattus norvegicus (Rat), UniProt P04916)
Assay: Single administration test in Wistar fatty rats, plasma RBP4 by ELISA
Format: in vivo
Details: male Wistar fatty rats, 10 mg/kg oral single dose, mean±SD
Procedure: The action of the compounds of the present invention to lower plasma RBP4 level was evaluated using the animal model shown below.
Male Wistar fatty rats (fa/fa) were bred in Takeda Pharmaceutical Company Limited and maintained on normal diet (CE2, CLAE Japan, Inc.) and tap water. Animals were housed in a temperature-controlled room adjusted to a 12-hour light/12-hour dark cycle beginning at 7:00 and 19:00, respectively. All procedures were conducted according to the experimental animal care use committee of Takeda Pharmaceutical Company.
Male 13-43-week-old Wistar fatty rats were divided into groups randomly. Compounds were suspended in 0.5% (w/v) methylcellulose in water and given orally to Wistar fatty rats at a dose of 10 mg/10 mL/kg of body weight (3-5 rats per group). Blood samples were obtained from tail vein with sodium heparin as an anticoagulant at time 0 hr (just before the administration), 4 hr, 7 hr, and 24 hr after the administration, followed by plasma separation by centrifugation. Plasma RBP4 levels were measured by enzyme-linked immunosorbent assay described in the following section.
Plasma samples were analyzed in duplicate for RBP4 by an enzyme-linked immunosorbent assay. Mouse recombinant RBP4 (Takeda Pharmaceutical Company Limited) was used as standards, and the assay range was 0.313-20 ng/ml. Samples were diluted 10,000-fold with phosphate-buffered saline (PBS) (Sigma) containing 10% (w/v) BlockAce (Dainippon Sumitomo Pharma Co., Ltd). Rabbit anti-RBP4 polyclonal antibody (100 μL/well of 50 μg/mL, Hokudo Co, Ltd) was incubated in a 96-well plate (Nalge Nunc International K.K.) for overnight at 4° C. Subsequently, the plates were washed with PBS-T (Wako Pure Chemical Industries, Ltd.) and blocked with PBS containing 25% BlockAce for 1 hr at room temperature. After another washing with PBS-T, samples and standards were applied to the well, and the plates were incubated for 2 hr at room temperature. After a washing the wells, peroxidase-labeled (Dojindo Laboratories) anti-RBP4 (100 μL/well) was added to the wells, and then the plates were incubated for 1 hr at room temperature. After a final washing with PBS-T, substrate solution 3,3,5,5-tetramethylbenzidine (Sigma) was added to the wells, and the plates were placed in the dark for 5-20 min at room temperature. The reaction was stopped with 0.5 M sulphuric acid and the optical density was measured with a spectrophotometer at 450 nm. The changes in plasma RBP4 levels were expressed as % of initial/Control. All data are presented as mean±SD.

For `CC(C)(C)c1ccccc1N1CCN(C(=O)C(=O)O)CC1` [Example 44, 2-[4-(2-tert-Butylphenyl)piperazin-1-yl]-2-oxoacetic acid], the “RBP4 (% of initial/Control) 0 hr” value (0 hr (just before the administration)) was 100.0 ± 13.8 % of initial/Control, the “RBP4 (% of initial/Control) 4 hr” value (4 hr after administration) was 59.6 ± 14.5 % of initial/Control and the “RBP4 (% of initial/Control) 7 hr” value (7 hr after administration) was 58.5 ± 5.6 % of initial/Control. The “RBP4 (% of initial/Control) 24 hr” value (24 hr after administration) was 106.0 ± 16.1 % of initial/Control.
